Reference: patent publication US10188665B2, “Ocular therapy using glucocorticoid derivatives selectively penetrating posterior segment tissues” (Allergan, Inc., priority 2005, dated 2019)

Assays:
[1] = Treatment of cystic macular edema with a GD implant (Example 4); type: in vivo, human
Protocol: A person diagnosed with cystic macular edema treated by administration of a biodegradable drug delivery system administered to each eye of the patient. […] A similar implant is administered subconjunctivally to the patient's right eye. […] No increase in intraocular pressure is seen one week after administration.

[2] = test system: VEGF-induced BRB breakdown (retinal leakage); experiment: VEGF-induced blood retinal barrier (BRB) breakdown, scanning ocular fluorophotometry of fluorescein leakage; type: in vivo, rabbit; details: for Inhibition of VEGF-induced BRB breakdown (fluorescein leakage into posterior segment): rabbit eye, 1 mg (100 μl of 10 mg/ml suspension) intravitreal, then intravitreal VEGF, read 48 h later; for Block of VEGF-induced BRB breakdown (retinal leakage): corticosteroid administered systemically or intravitreally
Protocol: (§1) Recombinant vascular endothelial growth factor (VEGF) was obtained from a supplier (R&D Systems). Female Dutch Belt rabbits were anaesthetized with isoflurane inhalation and topical 0.5% proparacaine hydrochloride, and intravitreal injection of one eye with 500 ng VEGF in sterile phosphate buffered saline (PBS) containing 0.1% bovine serum albumin was performed using a 28 guage ½ inch needle. The other eye is given the same volume of the vehicle, without the VEGF.
(§2) The extent of VEGF-induced BRB and BAB breakdown of the blood retinal barrier and the blood aqueous barrier was measured by scanning ocular fluorophotemetry (Fluorotron Master, Ocumetrics Inc.); at various times following intravitreal injection. In this model a fluorescent label is administered intravenously, following by determination of the amount of fluorescenin in the anterior and posterior segment and an indication of iridial and retinal leakage, respectively.
(§3) Sodium fluorescein in 1 ml saline was injected via the marginal ear vein at a concentration of 50 mg/kg, and ocular fluorescein levels in the vitreoretinal chamber and the anterior chamber was determined 50 minutes later.
(§4) Ten milligrams of each compound is added to 1 ml of sterile phosphate-buffered saline (PBS; ph 7.4). At day 0, 100 ml of a 10 mg/ml suspension of each steroid is injected into the vitreous of a rabbit eye. The PBS vehicle is injected into the other eye. VEGF is then injected at a pre-determined time (one month) thereafter, and BRB and BAB breakdown were measured by scanning ocular fluorophotometry 48 hrs later as described in Edelman et al., EXP.

[3] = Treatment of wet ARMD with a GD composition (Example 5); type: in vivo, human; details: person, intravitreal 100 μl hyaluronic acid solution with about 1000 μg crystals; within one month
Protocol: A person with wet age-related macular degeneration is treated with an intravitreal injection of 100 μl of a hyaluronic acid solution containing about 1000 μg of fluticasone propionate crystals in suspension.

[4] = test system: VEGF-induced BAB breakdown (iris leakage); experiment: VEGF-induced blood aqueous barrier (BAB) breakdown, scanning ocular fluorophotometry of fluorescein leakage; type: in vivo, rabbit; details: for Inhibition of VEGF-induced BAB breakdown (fluorescein leakage into anterior segment): rabbit eye, 1 mg (100 μl of 10 mg/ml suspension) intravitreal, then intravitreal VEGF, read 48 h later; for Block of VEGF-induced BAB breakdown (iris leakage): corticosteroid administered systemically or intravitreally
Protocol: as §1, §2, §3, §4

[5] = rabbit, 500 ng VEGF intravitreal, 48 h, 50 min after i.v. fluorescein

Compound | Inhibition of VEGF-induced BRB breakdown (fluorescein leakage into posterior segment) [2] | Inhibition of VEGF-induced BAB breakdown (fluorescein leakage into anterior segment) [4] | Block of VEGF-induced BAB breakdown (iris leakage) ([4]; rabbit) | Block of VEGF-induced BRB breakdown (retinal leakage) ([2]; rabbit) | also measured
CCC(=O)OCC(=O)[C@@]1(OC(=O)CC)[C@@H](C)C[C@H]2[C@@H]3CCC4=CC(=O)C=C[C@]4(C)[C@@]3(Cl)[C@@H](O)C[C@@]21C [Beclomethasone dipropionate, beclomethasone dipropionate] | – | – | – | – | Appearance of retina ([1]; person, implant of about 1000 μg PLGA and about 1000 μg drug, intravitreal left eye, subconjunctival right eye, about 3 months after surgery): appears normal; Degeneration of the optic nerve ([1]; same patient, about 3 months after surgery): appears to be reduced; Intraocular pressure ([1]; same patient, one week after administration): No increase; Inhibition of VEGF-induced BRB breakdown (fluorescein leakage into posterior segment) ([2]; listed as beclomethasone 17,21-dipropionate): completely blocks
CCC(=O)O[C@]1(C(=O)SCF)[C@H](C)C[C@H]2[C@@H]3C[C@H](F)C4=CC(=O)C=C[C@]4(C)[C@@]3(F)[C@@H](O)C[C@@]21C [Fluticasone propionate, fluticasone propionate] | completely blocks | – | – | – | Rate of neovascularization and related inflammation [3]: acceptable reduction
CC1(C)O[C@@H]2C[C@H]3[C@@H]4CCC5=CC(=O)C=C[C@]5(C)[C@@]4(F)[C@@H](O)C[C@]3(C)[C@]2(C(=O)CO)O1 [Triamcinolone acetonide, triamcinolone acetonide] | completely inhibited | completely inhibited | completely blocked | completely blocked | –
C[C@H]1C[C@H]2[C@@H]3CCC4=CC(=O)C=C[C@]4(C)[C@@]3(Cl)[C@@H](O)C[C@]2(C)[C@@]1(O)C(=O)CO [beclomethasone] | inhibited | inhibited | completely blocked | completely blocked | –
VEGF | – | – | – | – | Increase in fluorescein contained in the aqueous versus normal untreated eyes [4, 5]: approximately 6 fold; Increase in fluorescein contained in the vitreous versus normal untreated eyes [2, 5]: approximately 18 fold
